Results as given in BigSolDB 2.1.

In the case of `COc1cc(/C=C/C(=O)CC(=O)/C=C/c2ccc(O)c(OC)c2)ccc1O`, the solubility (mole fraction) (in DMSO, 278.15 K) is reported as 0.137, the solubility (mole fraction) (in DMSO, 283.15 K) is reported as 0.16 and the solubility (mole fraction) (in DMSO, 288.15 K) is reported as 0.184. The solubility (mole fraction) (in DMSO, 293.15 K) was 0.211, the solubility (mole fraction) (in DMSO, 298.15 K) was 0.24 and the solubility (mole fraction) (in DMSO, 303.15 K) was 0.271. The solubility (mole fraction) (in DMSO, 308.15 K) was 0.303, the solubility (mole fraction) (in DMSO, 313.15 K) was 0.338 and the solubility (mole fraction) (in DMSO, 318.15 K) was 0.375. The solubility (mole fraction) (in DMSO, 323.15 K) was 0.413, the solubility (mole fraction) (in THF, 278.15 K) was 0.113 and the solubility (mole fraction) (in THF, 283.15 K) was 0.134. The solubility (mole fraction) (in THF, 288.15 K) was 0.157, the solubility (mole fraction) (in THF, 293.15 K) was 0.183 and the solubility (mole fraction) (in THF, 298.15 K) was 0.211. The solubility (mole fraction) (in THF, 303.15 K) was 0.239, the solubility (mole fraction) (in THF, 308.15 K) was 0.27 and the solubility (mole fraction) (in THF, 313.15 K) was 0.302. For the same compound, the solubility (mole fraction) (in THF, 318.15 K) was 0.336, the solubility (mole fraction) (in THF, 323.15 K) was 0.371 and the solubility (mole fraction) (in acetone, 278.15 K) was 0.00834. For the same compound, the solubility (mole fraction) (in acetone, 283.15 K) was 0.00986, the solubility (mole fraction) (in acetone, 288.15 K) was 0.0118 and the solubility (mole fraction) (in acetone, 293.15 K) was 0.0138. For the same compound, the solubility (mole fraction) (in acetone, 298.15 K) was 0.0162, the solubility (mole fraction) (in acetone, 303.15 K) was 0.0189 and the solubility (mole fraction) (in acetone, 308.15 K) was 0.022. For the same compound, the solubility (mole fraction) (in acetone, 313.15 K) was 0.0257, the solubility (mole fraction) (in acetone, 318.15 K) was 0.0298 and the solubility (mole fraction) (in acetone, 323.15 K) was 0.0345. For the same compound, the solubility (mole fraction) (in acetonitrile, 278.15 K) was 0.00071, the solubility (mole fraction) (in acetonitrile, 283.15 K) was 0.00083 and the solubility (mole fraction) (in acetonitrile, 288.15 K) was 0.00097. For the same compound, the solubility (mole fraction) (in acetonitrile, 293.15 K) was 0.00113, the solubility (mole fraction) (in acetonitrile, 298.15 K) was 0.00129 and the solubility (mole fraction) (in acetonitrile, 303.15 K) was 0.00149. It also gave a solubility (mole fraction) (in acetonitrile, 308.15 K) of 0.00169, a solubility (mole fraction) (in acetonitrile, 313.15 K) of 0.00194 and a solubility (mole fraction) (in acetonitrile, 318.15 K) of 0.00221. For the same compound, the solubility (mole fraction) (in acetonitrile, 323.15 K) was 0.00253, the solubility (mole fraction) (in ethanol, 278.15 K) was 0.00041 and the solubility (mole fraction) (in ethanol, 283.15 K) was 0.00048. For the same compound, the solubility (mole fraction) (in ethanol, 288.15 K) was 0.00056, the solubility (mole fraction) (in ethanol, 293.15 K) was 0.00065 and the solubility (mole fraction) (in ethanol, 298.15 K) was 0.00075. The solubility (mole fraction) (in ethanol, 303.15 K) was 0.00086, the solubility (mole fraction) (in ethanol, 308.15 K) was 0.00098 and the solubility (mole fraction) (in ethanol, 313.15 K) was 0.00111. The solubility (mole fraction) (in ethanol, 318.15 K) was 0.00127, the solubility (mole fraction) (in ethanol, 323.15 K) was 0.00145 and the solubility (mole fraction) (in ethyl acetate, 278.15 K) was 0.00176. It also gave a solubility (mole fraction) (in ethyl acetate, 283.15 K) of 0.00199, a solubility (mole fraction) (in ethyl acetate, 288.15 K) of 0.00227 and a solubility (mole fraction) (in ethyl acetate, 293.15 K) of 0.00253. For the same compound, the solubility (mole fraction) (in ethyl acetate, 298.15 K) was 0.00285, the solubility (mole fraction) (in ethyl acetate, 303.15 K) was 0.00319 and the solubility (mole fraction) (in ethyl acetate, 308.15 K) was 0.00357. For the same compound, the solubility (mole fraction) (in ethyl acetate, 313.15 K) was 0.00399, the solubility (mole fraction) (in ethyl acetate, 318.15 K) was 0.00447 and the solubility (mole fraction) (in ethyl acetate, 323.15 K) was 0.00501. It also gave a solubility (mole fraction) (in isopropanol, 278.15 K) of 0.00156, a solubility (mole fraction) (in isopropanol, 283.15 K) of 0.00177 and a solubility (mole fraction) (in isopropanol, 288.15 K) of 0.002. The solubility (mole fraction) (in isopropanol, 293.15 K) was 0.00226, the solubility (mole fraction) (in isopropanol, 298.15 K) was 0.00254 and the solubility (mole fraction) (in isopropanol, 303.15 K) was 0.00285. The solubility (mole fraction) (in isopropanol, 308.15 K) was 0.00319, the solubility (mole fraction) (in isopropanol, 313.15 K) was 0.00356 and the solubility (mole fraction) (in isopropanol, 318.15 K) was 0.00398. For the same compound, the solubility (mole fraction) (in isopropanol, 323.15 K) was 0.00444, the solubility (mole fraction) (in m-xylene, 278.15 K) was 0.00015 and the solubility (mole fraction) (in m-xylene, 283.15 K) was 0.00018. The solubility (mole fraction) (in m-xylene, 288.15 K) was 0.00022, the solubility (mole fraction) (in m-xylene, 293.15 K) was 0.00026 and the solubility (mole fraction) (in m-xylene, 298.15 K) was 0.00031. The solubility (mole fraction) (in m-xylene, 303.15 K) was 0.00036, the solubility (mole fraction) (in m-xylene, 308.15 K) was 0.00042 and the solubility (mole fraction) (in m-xylene, 313.15 K) was 0.00049. It also gave a solubility (mole fraction) (in m-xylene, 318.15 K) of 0.00057, a solubility (mole fraction) (in m-xylene, 323.15 K) of 0.00066 and a solubility (mole fraction) (in methanol, 278.15 K) of 0.00029. The solubility (mole fraction) (in methanol, 283.15 K) was 0.00033, the solubility (mole fraction) (in methanol, 288.15 K) was 0.00038 and the solubility (mole fraction) (in methanol, 293.15 K) was 0.00044. For the same compound, the solubility (mole fraction) (in methanol, 298.15 K) was 0.0005, the solubility (mole fraction) (in methanol, 303.15 K) was 0.00057 and the solubility (mole fraction) (in methanol, 308.15 K) was 0.00066. For the same compound, the solubility (mole fraction) (in methanol, 313.15 K) was 0.00075, the solubility (mole fraction) (in methanol, 318.15 K) was 0.00087 and the solubility (mole fraction) (in methanol, 323.15 K) was 0.001. The solubility (mole fraction) (in n-butanol, 278.15 K) was 0.00049, the solubility (mole fraction) (in n-butanol, 283.15 K) was 0.00057 and the solubility (mole fraction) (in n-butanol, 288.15 K) was 0.00066. It also gave a solubility (mole fraction) (in n-butanol, 293.15 K) of 0.00075, a solubility (mole fraction) (in n-butanol, 298.15 K) of 0.00086 and a solubility (mole fraction) (in n-butanol, 303.15 K) of 0.00099. It also gave a solubility (mole fraction) (in n-butanol, 308.15 K) of 0.00114, a solubility (mole fraction) (in n-butanol, 313.15 K) of 0.00131 and a solubility (mole fraction) (in n-butanol, 318.15 K) of 0.00151. The solubility (mole fraction) (in n-butanol, 323.15 K) was 0.00175, the solubility (mole fraction) (in n-heptane, 278.15 K) was 5e-05 and the solubility (mole fraction) (in n-heptane, 283.15 K) was 9e-05. The solubility (mole fraction) (in n-heptane, 288.15 K) was 0.00013, the solubility (mole fraction) (in n-heptane, 293.15 K) was 0.00017 and the solubility (mole fraction) (in n-heptane, 298.15 K) was 0.00022. For the same compound, the solubility (mole fraction) (in n-heptane, 303.15 K) was 0.00027, the solubility (mole fraction) (in n-heptane, 308.15 K) was 0.00032 and the solubility (mole fraction) (in n-heptane, 313.15 K) was 0.00038. For the same compound, the solubility (mole fraction) (in n-heptane, 318.15 K) was 0.00044, the solubility (mole fraction) (in n-heptane, 323.15 K) was 0.00052 and the solubility (mole fraction) (in n-hexane, 278.15 K) was 7e-05. It also gave a solubility (mole fraction) (in n-hexane, 283.15 K) of 0.00011, a solubility (mole fraction) (in n-hexane, 288.15 K) of 0.00015 and a solubility (mole fraction) (in n-hexane, 293.15 K) of 0.00019. It also gave a solubility (mole fraction) (in n-hexane, 298.15 K) of 0.00024, a solubility (mole fraction) (in n-hexane, 303.15 K) of 0.00029 and a solubility (mole fraction) (in n-hexane, 308.15 K) of 0.00035. For the same compound, the solubility (mole fraction) (in n-hexane, 313.15 K) was 0.00041, the solubility (mole fraction) (in n-hexane, 318.15 K) was 0.00048 and the solubility (mole fraction) (in n-hexane, 323.15 K) was 0.00057.
